# Reference: the supplement of paper PMC10307832
# Legend:
# Test in all cases: relative viability (nuclei count vs DMSO), 5 days (fraction); higher = more cells survive
# [1] = compound: CC1=CC(=NN1)NC2=CC(=NC(=N2)/C=C/C3=CC=CC=C3)N4CCN(CC4)C + NC(=O)Nc1cc(-c2cccc(F)c2)sc1C(=O)N[C@H]1CCCNC1 [AZD7762] (partner 0.2 µM)
# Method in brief: (§1)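 Five library-drug doses in √10 steps were combined with a fixed anchor-drug dose, or a single drug was given alone, by pin tool to lung cancer cell lines in 1536-well plates the day after seeding. Nuclei were stained and counted after 5 days. Relative viability is the nuclei count in treated wells over that in vehicle wells, taken as the median of duplicate plates.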
# [2] = compound: CC1=CC(=NN1)NC2=CC(=NC(=N2)/C=C/C3=CC=CC=C3)N4CCN(CC4)C + O=C(c1cc(Cc2n[nH]c(=O)c3ccccc23)ccc1F)N1CCN(C(=O)C2CC2)CC1 [Olaparib] (partner 8 µM)
# Method in brief: as §1
# [3] = compound: CC1=CC(=NN1)NC2=CC(=NC(=N2)/C=C/C3=CC=CC=C3)N4CCN(CC4)C + Nc1nc2[nH]cc(CCc3ccc(C(=O)N[C@@H](CCC(=O)O)C(=O)O)cc3)c2c(=O)[nH]1 [Pemetrexed] (partner 0.2 µM)
# Method in brief: as §1
# [4] = compound: COC1=CC(c2cc3ccccc3[nH]2)=N/C1=C\c1[nH]c(C)cc1C [Obatoclax] + O=C(c1cc(Cc2n[nH]c(=O)c3ccccc23)ccc1F)N1CCN(C(=O)C2CC2)CC1 [Olaparib] (partner 8 µM)
# Method in brief: as §1
Cell Line,relative viability ([1]; first compound 0.08 µM),relative viability ([1]; first compound 0.253 µM),relative viability ([1]; first compound 0.8 µM),relative viability ([1]; first compound 2.53 µM),relative viability ([1]; first compound 8 µM),relative viability ([2]; first compound 0.08 µM),relative viability ([2]; first compound 0.253 µM),relative viability ([2]; first compound 0.8 µM),relative viability ([2]; first compound 2.53 µM),relative viability ([2]; first compound 8 µM),relative viability ([3]; first compound 0.08 µM),relative viability ([3]; first compound 0.253 µM),relative viability ([3]; first compound 0.8 µM),relative viability ([3]; first compound 2.53 µM),relative viability ([3]; first compound 8 µM),relative viability ([4]; first compound 0.01 µM),relative viability ([4]; first compound 0.03162 µM),relative viability ([4]; first compound 0.1 µM),relative viability ([4]; first compound 0.3162 µM),relative viability ([4]; first compound 1 µM)
LCLC-103H,0.746,0.807,0.775,0.723,0.576,0.775,0.846,0.716,0.668,0.481,0.476,0.465,0.458,0.516,0.359,0.704,0.745,0.672,0.745,0.706
LK-2,0.245,0.364,0.323,0.0834,0.0556,0.699,0.772,0.684,0.29,0.0845,0.199,0.288,0.306,0.217,0.0825,0.806,0.81,0.768,0.695,0.762
LOU-NH91,0.782,0.834,0.733,0.518,0.336,0.871,0.958,0.926,0.875,0.385,0.383,0.389,0.391,0.394,0.361,0.921,0.919,0.834,0.857,0.398
LU99A,0.298,0.376,0.252,0.14,0.0858,0.275,0.244,0.266,0.182,0.103,0.187,0.2,0.199,0.202,0.173,0.292,0.243,–,0.313,0.321
LXF-289,1.06,1.11,1.04,0.685,0.102,1.05,1.04,0.87,0.411,0.055,0.872,0.874,0.895,0.615,0.444,1.05,1.1,0.972,1.09,1
NCI-H23,0.246,0.186,0.23,0.094,0.101,0.303,0.325,0.224,0.134,0.108,0.508,0.768,0.542,0.215,0.118,0.288,0.369,0.398,0.28,0.206
NCI-H322M,0.555,0.6,0.615,0.403,0.302,0.662,0.762,0.742,0.486,0.281,0.615,0.622,0.616,0.308,0.273,0.823,0.739,0.961,0.758,0.724
NCI-H358,0.574,0.528,0.424,0.195,0.154,0.505,0.644,0.486,0.209,0.068,0.163,0.172,0.173,0.128,0.0753,0.543,0.61,0.582,0.384,0.141
